# Calls of active or inactive are those of the source. No cut-off for these calls is given here.
# How the values were obtained:
# Saccharomyces cerevisiae [1] = experiment: Antifungal activity against Saccharomyces cerevisiae BY4741 assessed as reduction in cell growth at 1 mM; assay type: functional, organism-based
# Saccharomyces cerevisiae [2] = experiment: Antifungal activity against Saccharomyces cerevisiae BY4741 assessed as increase in unbudded cells at 1 mM (reference value: 38.5%); assay type: functional
# Saccharomyces cerevisiae [3] = experiment: Antifungal activity against Saccharomyces cerevisiae BY4741 assessed as small budded cells at 1 mM (reference value: 22%); assay type: functional
# Saccharomyces cerevisiae [4] = experiment: Antifungal activity against Saccharomyces cerevisiae BY4741 assessed as large budded cells at 1 mM (reference value: 39.4%); assay type: functional
# Saccharomyces cerevisiae [5] = experiment: Cell cycle arrest in Saccharomyces cerevisiae BY4741 assessed as accumulation of cells with […] DNA content at G1 phase at 290 uM for 8 hrs by flow cytometric analysis; assay type: functional, organism-based
# Saccharomyces cerevisiae [6] = experiment: Cell cycle arrest at G1-phase in Saccharomyces cerevisiae BY4741 assessed as accumulation of […] DNA content at 290 uM after 180 mins by flow cytometric analysis; assay type: functional, organism-based
# Saccharomyces cerevisiae [7] = experiment: Antifungal activity against wild-type Saccharomyces cerevisiae BY4741 at 1.4 mM by serial dilution method; assay type: functional, organism-based
# Saccharomyces cerevisiae [8] = experiment: Antifungal activity against xrs2-deficient Saccharomyces cerevisiae BY4741 at 1 to 1.4 mM after 3 days by serial dilution method; assay type: functional, organism-based
# Saccharomyces cerevisiae [9] = experiment: Antifungal activity against top3-deficient Saccharomyces cerevisiae BY4741 at 1 to 1.4 mM after 3 days by serial dilution method; assay type: functional, organism-based
# Saccharomyces cerevisiae [10] = experiment: Antifungal activity against ski2-deficient Saccharomyces cerevisiae BY4741 at 1 to 1.4 mM after 3 days by serial dilution method; assay type: functional, organism-based
# Saccharomyces cerevisiae [11] = experiment: Antifungal activity against Saccharomyces cerevisiae BY4741 expressing Rad52-GFP assessed as appearance of Rad52 foci by epifluorescence microscopy; assay type: functional, organism-based
# Saccharomyces cerevisiae [12] = experiment: Antifungal activity against Saccharomyces cerevisiae BY4741 expressing Rad52-GFP assessed as increase in appearance of Rad52 foci in G1 phase by epifluorescence microscopy; assay type: functional, organism-based
# Saccharomyces cerevisiae [13] = experiment: Antifungal activity against Saccharomyces cerevisiae BY4741 expressing Rad52-GFP assessed as increase in appearance of Rad52 foci in S-phase by epifluorescence microscopy; assay type: functional, organism-based
# Saccharomyces cerevisiae [14] = experiment: Antifungal activity against Saccharomyces cerevisiae BY4741 expressing Rad52-GFP assessed as increase in appearance of Rad52 foci in G2/M phase by epifluorescence microscopy; assay type: functional, organism-based
# Saccharomyces cerevisiae [15] = experiment: Antifungal activity against Saccharomyces cerevisiae BY4741 assessed as inhibition of replication at 1 mM; assay type: functional, organism-based
# Saccharomyces cerevisiae [16] = experiment: Induction of cell cycle arrest at G1-phase in Saccharomyces cerevisiae BY4741 assessed as accumulation of 1C DNA content at 1 mM after 180 mins by flow cytometric analysis; assay type: functional, organism-based
# Saccharomyces cerevisiae [17] = experiment: Induction of cell cycle arrest at G1-phase in Saccharomyces cerevisiae BY4741 at 1 mM after 180 mins by flow cytometric analysis; assay type: functional, organism-based
# Saccharomyces cerevisiae [18] = experiment: Antifungal activity against xrs2-deficient Saccharomyces cerevisiae BY4741 at 0.85 to 1.14 mM after 3 days by serial dilution method; assay type: functional, organism-based
# Saccharomyces cerevisiae [19] = experiment: Antifungal activity against top3-deficient Saccharomyces cerevisiae BY4741 at 0.85 to 1.14 mM after 3 days by serial dilution method; assay type: functional, organism-based
# Saccharomyces cerevisiae [20] = experiment: Antifungal activity against ski2-deficient Saccharomyces cerevisiae BY4741 at 0.85 to 1.14 mM after 3 days by serial dilution method; assay type: functional, organism-based
# Saccharomyces cerevisiae [21] = experiment: Antifungal activity against PKC1-deficient Saccharomyces cerevisiae BY4741 by Haploinsufficiency-profiling assay; assay type: functional, organism-based
# Saccharomyces cerevisiae [22] = experiment: Antifungal activity against wild-type Saccharomyces cerevisiae BY4741 at 1.14 mM after 3 days by serial dilution method; assay type: functional, organism-based
smiles,measurement,setting,value
CCN(CC)CCCN(Cn1nc(C)cc1C)Cn1nc(C)cc1C,Activity,Saccharomyces cerevisiae [1],Active
same,Activity,Saccharomyces cerevisiae [2],51.5%
same,Activity,Saccharomyces cerevisiae [3],9.7%
same,Activity,Saccharomyces cerevisiae [4],38.7%
same,Activity,Saccharomyces cerevisiae [5],Active
same,Activity,Saccharomyces cerevisiae [6],Active
same,Activity,Saccharomyces cerevisiae [7],inactive
same,Activity,Saccharomyces cerevisiae [8],Active
same,Activity,Saccharomyces cerevisiae [9],Active
same,Activity,Saccharomyces cerevisiae [10],Active
same,Activity,Saccharomyces cerevisiae [11],Active
same,Activity,Saccharomyces cerevisiae [12],Active
same,Activity,Saccharomyces cerevisiae [13],Active
same,Activity,Saccharomyces cerevisiae [14],Active
Cc1cc(C)n(CO)n1,Activity,Saccharomyces cerevisiae [1],Active
Cc1cc(C)[nH]n1,Activity,Saccharomyces cerevisiae [1],inactive
CCN(CC)CCCN(Cn1cncn1)Cn1cncn1,Activity,Saccharomyces cerevisiae [1],Active
same,Activity,Saccharomyces cerevisiae [11],Active
same,Activity,Saccharomyces cerevisiae [12],Active
same,Activity,Saccharomyces cerevisiae [13],Active
same,Activity,Saccharomyces cerevisiae [14],Active
same,Activity,Saccharomyces cerevisiae [15],Active
same,Activity,Saccharomyces cerevisiae [16],Active
same,Activity,Saccharomyces cerevisiae [17],Active
same,Activity,Saccharomyces cerevisiae [18],Active
same,Activity,Saccharomyces cerevisiae [19],Active
same,Activity,Saccharomyces cerevisiae [20],Active
same,Activity,Saccharomyces cerevisiae [21],Active
same,Activity,Saccharomyces cerevisiae [22],inactive

# From ChEMBL document CHEMBL1828521, “New azole antifungal agents with novel modes of action: synthesis and biological studies of new tridentate ligands based on pyrazole and triazole” (2011)
